Data published in PMC6413118, “Active Components, Antioxidant, Inhibition on Metabolic Syndrome Related Enzymes, and Monthly Variations in Mature Leaf Hawk Tea” (Molecules, 2019).

Target: T1, porcine pancreatic lipase (Sus scrofa, UniProt P00591)
T1 construct: gene PNLIP; EC printed is that of carboxylesterase
T1 sequence (P00591 1-450): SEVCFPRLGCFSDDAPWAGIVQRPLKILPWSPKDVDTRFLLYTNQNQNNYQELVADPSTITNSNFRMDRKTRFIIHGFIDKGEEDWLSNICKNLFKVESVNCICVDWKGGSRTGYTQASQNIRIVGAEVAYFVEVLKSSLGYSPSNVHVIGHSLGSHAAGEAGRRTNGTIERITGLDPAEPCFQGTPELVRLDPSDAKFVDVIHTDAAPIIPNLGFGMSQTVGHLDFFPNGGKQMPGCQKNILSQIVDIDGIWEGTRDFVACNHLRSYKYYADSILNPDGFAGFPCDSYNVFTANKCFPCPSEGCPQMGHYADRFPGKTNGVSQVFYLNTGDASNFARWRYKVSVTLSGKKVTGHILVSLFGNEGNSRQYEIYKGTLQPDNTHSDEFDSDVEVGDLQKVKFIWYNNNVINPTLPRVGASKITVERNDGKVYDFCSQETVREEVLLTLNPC
Assay: p-nitrophenyl palmitate hydrolysis, absorbance […] nm, microplate
Assay type: biochemical
Conditions: 10 mM p-nitrophenyl palmitate stock (20 μL), 0.1 M sodium phosphate pH 7, 37 °C, 20 min; unreliable: table and text disagree tenfold

CCCCCCCCCCC[C@@H](C[C@@H]1OC(=O)[C@H]1CCCCCC)OC(=O)[C@H](CC(C)C)NC=O [Orlistat]
Lipase IC50: 0.6 µg/mL
